Measurements taken from patent US20040147028A1, “Yeast treatment” (priority 2002, published 2004).
Where two headings read alike, the source gives them in different places.

Columns and labels:
yeast protoplasts [1] = test: Endocytosis study: yeast protoplasts incubated with dye-bound liposomes, confocal and transmission electron microscopy; assay type: cell-based, Saccharomyces cerevisiae (YNN 281); settings: dye incubated alone with the formed protoplasts, unencapsulated
Protocol: An 0.8 ml aliquot of protoplast suspension was dispensed through a large orifice pipette tip (ensuring minimal disturbance of the fragile protoplast) into a sterilised eppendoff tube to which was added 0.8 ml of the liposome suspension obtained from the gel filtration. Both solutions were of equivalent densities to ensure the stability of the protoplast and gently mixed prior to incubation. The tubes were individually wrapped in foil and embedded on their side in a sheet of Styrofoam which was also wrapped in foil to ensure the tubes would remain in place and then immersed into a water bath a 37° C. for the 90 minute incubation.
A 20 ul sample of the incubated suspension was applied to a microscope slide with the edges of the cover slip sealed with an acrylic resin to inhibit drying out of the sample. The slides once made were stored in the dark to reduce the risk of a loss in fluorescence of the FITC conjugate and viewed immediately under phase contrast and fluorescence using the confocal microscope.
The technique used for preparing sections of block-mounted cells for image analysis required 0.5 ml of the protoplast-liposome suspension to be fixed with 50 ul of 1.25% (v/v) glutaraldehyde and 1.0% (w/v) paraformaldehyde in a 0.2M cacodylate buffer at pH 7.2 for 1 hour. The fixed suspension was then mixed with a similar volume of 5.0% agarose and placed at 4° C. for 20 minutes to set. […]

yeast protoplasts [2] = test system: yeast protoplasts
Protocol: To ensure the competent nature of the formed protoplast to undertake endocytosis, the yeast cells were grown on a modified YEPD media in which the 2% (w/v) dextrose was replaced by 4% (w/v) sucrose as the carbon source to facilitate a mechanism for the absorption and transport of the sucrose C14 by the yeast cells. Protoplasts were formed as described above and isolated again utilising a sorbitol based density gradient. Silicon oil isolation of protoplasts is a convenient method for separating radio labelled cells from a sugar gradient solution. […] Seven micro tubes (400 ul) were prepared for pelletising the protoplasts with each containing 10 ul of Fluorinert FC 77 as a capture solution and 100 ul of Silicon Oil AR 200 (Density of 1.05 g/1) as the media to be used for the separation of sucrose C14 protoplasts. In the experiment 40 ul of a 1M sucrose (made in a 50 ml volumetric flask) was used to which was added 2 ul of the sucrose C14 stock. Then 1.2 ml of the protoplast suspension was placed into a 1.5 ml eppendoff tube and 12 ul of the 1M sucrose C14 solution was placed in the cap. The incubation time started when the cap was sealed onto the eppendoff tube. Next, 100 ul aliquots of the protoplasts were taken at 10 minute intervals and placed sequentially into a series of the prepared 400 ul tubes containing the silicon oil gradients and spun at 7000 rpm for 10 second. The tubes were removed at each time interval and cut through the upper silicon oil fraction to capture the formed protoplast pellet and resuspended in 100 ul of Milli Q water in a scintillation tube containing 3 ml of scintillation fluid. As a standard, 100 ul volumes of the 1M sucrose containing the sucrose C14 were taken for counting but not spun through the silicon oil as were the protoplasts without the isotope but these spun through the silicon oil and counted to avoid quenching correction of the protoplast extract.
A graph of time vs. counts, recorded as nmoles of absorbed sucrose was then prepared to confirm the uptake of our sucrose isotope by the competent protoplasts.
Standards were prepared and measured for background scintillation without the added isotope and 100 ul of a 1M sucrose standard continuing the isotope was measured to obtain counts for a 1 umole solution of sucrose.

Row | Compound | passive migration across the plasma membrane of protoplasts (false positive) (yeast protoplasts [1]) | I-Sucrose 14 C uptake (yeast protoplasts [2]; time 1 min) | I-Sucrose 14 C uptake (yeast protoplasts [2]; time 10 min) | I-Sucrose 14 C uptake (yeast protoplasts [2]; time 20 min) | I-Sucrose 14 C uptake (yeast protoplasts [2]; time 30 min) | I-Sucrose 14 C uptake (yeast protoplasts [2]; time 40 min) | I-Sucrose 14 C uptake (yeast protoplasts [2]; time 50 min) | I-Sucrose 14 C uptake (yeast protoplasts [2]; time 60 min)
1 | O=C(O)CN(CC(=O)O)Cc1cc2c(cc1O)Oc1cc(O)c(CN(CC(=O)O)CC(=O)O)cc1C21OC(=O)c2ccccc21 [calcein] | some passive migration of this molecule across the plasma membrane |  |  |  |  |  |  | 
2 | fluorescein isothiocyanate dextran [formula 13] | eliminated this situation |  |  |  |  |  |  | 
3 | O[14CH2]C1OC(O[C@@]2([14CH2]O)OC([14CH2]O)C(O)C2O)C(O)C(O)C1O (stereo partly drawn) [I-Sucrose 14 C, I-sucrose-ul-14C] |  | 1.87 nmol | 6.62 nmol | 13.4 nmol | 17.9 nmol | 26.6 nmol | 35.9 nmol | 56.9 nmol
